Test results published in BigSolDB 2.1.

CCCCN1CCCCC1C(=O)Nc1c(C)cccc1C.Cl (stereo unspecified)
solubility (mole fraction)
Settings | 293.15 K | 298.15 K | 303.15 K | 308.15 K | 313.15 K | 318.15 K | 323.15 K | 328.15 K | 333.15 K
in DMF | 0.0036 | 0.0049 | 0.0062 | 0.0079 | 0.0096 | 0.0117 | 0.0128 | 0.0149 | 0.0172
in acetic acid | 0.0322 | 0.0367 | 0.0399 | 0.0475 | 0.0601 | 0.0702 | 0.0879 | 0.109 | 0.13
in ethanol | 0.0087 | 0.0099 | 0.0115 | 0.0139 | 0.0169 | 0.0207 | 0.0254 | 0.0312 | 0.0372
in isopropanol | 0.002 | 0.0023 | 0.0028 | 0.0032 | 0.0037 | 0.0045 | 0.0051 | 0.006 | 0.0069
in methanol | 0.0116 | 0.014 | 0.0167 | 0.0206 | 0.0249 | 0.0295 | 0.0346 | 0.0407 | –
in n-butanol | 0.0108 | 0.0121 | 0.0142 | 0.0164 | 0.0198 | 0.0236 | 0.0288 | 0.0355 | 0.0412
in n-propanol | 0.0051 | 0.0058 | 0.0084 | 0.0101 | 0.0135 | 0.0172 | 0.0216 | 0.0281 | 0.0342
in water | 0.0017 | 0.0019 | 0.0021 | 0.0022 | 0.0025 | 0.0028 | 0.0032 | 0.0036 | 0.0041
